Experimental data taken from patent US10806721B2, “Formulation for use in the treatment of uremic pruritus” (DRUG DELIVERY SOLUTIONS, priority 2016, dated 2020).

How the values were obtained:
[1] = system: reconstructed human epidermis (RHE); assay: Histological examination of reconstructed human epidermis exposed to urea (Example 3); assay type: cell-based
Protocol: (§1) To further investigate possible carbamylation in human skin in UP (Uremic Pruritus) the inventors conducted a series of studies in the reconstructed human epidermis (RHE) model. The 4 cm^2 large skin samples were delivered from Episkin® in 6 well plates each with a volume of 1 ml. The experiments were carried out in 18-25 days old skin samples. RHE is a standardized technology used to investigate metabolic, toxic and inflammatory reactions in the skin (13). The skin samples were developed from human epidermal stem cells. They were developed on a […] net with an underlying growth medium. The RHE contains all the different cell layers in the epidermis, including stratum corneum. The samples are kept at 37° C. in a 5% CO2 atmosphere. They are handled under sterile conditions. New growth medium is added daily. The 4 cm^2 large skin samples were ready for use after 18 days' development; a time span similar to the normal turnover of human skin.
(§2) 12 individual experiments were carried out including 2 controls. Growth media (1 ml) were replaced daily according to the standard protocol. 6 of the samples were harvested at day 3 and 6 at day 6 and immediately frozen at minus 80° C. until protein analysis. Parts of all samples were sent for histologic examination.
(§3) The following exposures (individual experiments), all from stratum corneum side of the skin sample, were made.
(§4) 2. Urea in an aqueous solution in the same amount—calculated as mg/cm^2 skin—, as in UP. This calculated amount corresponds to 0.3 mg/cm^2, based on calculation of the sum of the average serum levels of urea in uremic patients, urea from sweat, and contribution from active transport of urea into the cells in epidermis. The addition of urea is done by the addition of 200 μl of a solution of 6 mg urea/ml) to the surface of the skin samples.
(§5) 3. As under above item 2 but in double amount (0.6 mg/cm^2).
(§6) 4. As under above item 3 and added 200 μl of a 1% histidine solution.
(§7) 5. 5% commercially available urea cream dosed as intended human use
6. 10% commercially available urea cream dosed as intended human use […]

[2] = system: Human Reconstructed Epidermis (RHE); assay: ELISA of carbamoylated proteins in RHE with urea in the growth medium (Example 4); assay type: cell-based
Source text: (§8) Protein analysis was made according to a previous developed method (14). Carbamoylated proteins from the skin samples were coated to ELISA wells and quantified using a using a primary polyclonal anti-homocitrullin antibody and a secondary labelled polyclonal detection antibody.
The same method as described in example 3 was used. The studies were based on the use of the Human Reconstructed Epidermis (RHE) model purchased from Episkin®. Three experiments were made in duplicate including 2 controls. Growth media (1 ml) with and without additions (see below) were replaced daily accordingly to the standard protocol. In contrast to Example 3 the urea exposure was made by addition of urea to the growth medium. Experiment 1 corresponds to the two controls; experiment 2 was with growth medium with 4 mg/ml urea; experiment 3 was with growth medium with 4 mg/ml urea and with addition of 5 mg […] cream with 2% amino acids applied on top of RHE skin surface at Day 0 and Day 3. All 6 skin samples looked macroscopically healthy when they were harvested after 6 days. There were no signs of infection or necrosis. They were immediately frozen at minus 80° C. until protein analysis. Parts of all samples were sent for histological examination.
Protein carbamoylated was investigated using the same method as in Experiment 3.

[3] = system: reconstructed human epidermis (RHE); assay: ELISA of carbamoylated proteins in reconstructed human epidermis exposed to urea from the stratum corneum side (Example 3); assay type: cell-based; conditions: for ELISA reading, carbamoylated proteins, Day 3: harvested day 3; for ELISA reading, carbamoylated proteins, Day 6: harvested day 6; for carbamylation of proteins (result in words): exposure on top of RHE skin samples, within 6 days
Protocol: as §1, §2, §3
1. Controls: Left untreated.
as §4, §5, §6, §7
6. 10% commercially available urea cream dosed as intended human use
The skin samples harvested at day 3 were exposed day 0 to 2-6 and day 1 to 2-4. (tabl. 1)
The skin samples is harvested at day 6 were exposed as above and further day 3 to 2-6. In agreement with Table 1 the aqueous urea solution was absorbed immediately through the skin samples. The two creams left a deposit on top of the skin and were therefore only applied twice; day 0 and day 3 (for the 6-day experiment). Daily exposures were abstained to minimize the risk of infection. […] Further the urea concentrations from experiments 2, 3 and 4 harvested day 6 may have been relatively low due to only one supplementary exposure day 3.
as §8

[4] = Degradation of histidine in the cream of Example 1 exposed to urea; assay type: physicochemical; conditions: cream of Example 1 with 10 w/w % urea; six weeks at 40° C.
Protocol: The degradation process was followed over time and after six weeks at 40° C. only 20% histidine was left in the cream having 10 w/w % urea.

[5] = Urea conc. as in UP (high) 12 mg, 0.6 mg/cm^2 on skin surface
[6] = Urea conc. as in UP (moderate) 6 mg, 0.3 mg/cm^2 on skin surface
[7] = 0.5% histidine added to urea conc. as in UP (high) 12 mg

Row | Structure (SMILES) | histological changes (edema and disruptions in stratum corneum, premature cell death in stratum spinosum) ([1]; harvested day 3) | histological changes ([1]; harvested day 6) | Elisa reading, carbamoylated proteins, average of two experiments ([2]; GM + 4 mg urea/ml, harvested after 6 days) [absorbance units] | level of protein carbamylation (result in words) ([2]; growth medium with 4 mg/ml urea, 6 days) | ELISA reading, carbamoylated proteins, Day 3 [3, 5] [absorbance units] | ELISA reading, carbamoylated proteins, Day 6 [3, 5] [absorbance units] | ELISA reading, carbamoylated proteins, Day 3 [3, 6] [absorbance units] | ELISA reading, carbamoylated proteins, Day 6 [3, 6] [absorbance units] | carbamylation of proteins (result in words) [3] | effect on urea-induced edema and cell death (histology) ([1]; histidine added to urea 0.6 mg/cm^2, harvested both day 3 and day 6) | histidine left in the cream [4] [%] | ELISA reading, carbamoylated proteins, Day 3 [3, 7] [absorbance units] | ELISA reading, carbamoylated proteins, Day 6 [3, 7] [absorbance units]
1 | NC(N)=O [Urea] | significant changes | recovered to a certain extent | 0.68 | highest level of carbamylation | 0.316 | 0.475 | 0.377 | 0.368 | could be demonstrated | – | – | – | –
2 | N[C@@H](Cc1c[nH]cn1)C(=O)O [histidine] | – | – | – | – | – | – | – | – | prevented this carbamylation | can counteract this effect | 20 | 0.312 | 0.321
